# Columns and labels:
# [1] = target: T1, AR with a 112 glutamine tract (Homo sapiens, UniProt P10275, INS80QQQQQQQQQQQQQQQQQQQQQQQQQQQQQQQQQQQQQQQQQQQQQQQQQQQQQQQQQQQQQQQQQQQQQQQQQQQQQQQQQQQQQQQQQ); assay: Androgen-responsive luciferase reporter assay in PC12 (ARQ112) neuronal cells; format: cell-based; conditions: PC12 cells expressing AR with 112 glutamine tract, FIG. 2B
# T1 construct: expressed in transfected cells; host or cells: PC12 (ARQ112), inducible
# From the text: Luciferase Reporter Assay. Cells were transfected using Lipofectamine Plus (Invitrogen) with a normalization plasmid (pRL-SV40, Promega) and an androgen responsive plasmid (MMTV-luciferase or PSA-luciferase) as described in Jones et al, ACS Chem Biol, 3(7):412-8 (2008), and, where indicated, with an shRNA plasmid targeting FOXM1 (adapted for mouse FOXM1 sequence targeting) a scrambled control shRNA plasmid, or ARQ24 or ARQ65 plasmids. Christensen et al, PLoS One, 8(1):e54556 (2013). The following day, cells and drugs were distributed to 96-well plates. 24 hours later, luciferase activity was assessed by a dual luciferase assay kit (Promega) on the Tecan plate reader. Samples were run in quadruplicates and a Student's t test was performed to determine significance, where p<0.05 was considered significant.
# The ability of thiostrepton to inhibit AR activity in additional neuronal cells, including ReNcell CX cells PC12 cells, and in rat L6 skeletal muscle cells was examined (FIG. 2B). Donato et al, BMC Neurosci, 8:36 (2007); Yaffe, Proc Natl Acad Sci USA, 61(2):477-83 (1968).
# SBMA is caused by the activity of polyglutamine-expanded AR, and experiments were conducted to investigate the effects of thiostrepton against polyglutamine-expanded AR. […]
# [2] = Pilot pharmacokinetic study, plasma and spinal fluid by LC-MS/MS; format: in vivo, rat
# Method: (§1) Animals and Drugs. This study was carried out in strict accordance with the recommendations in the Guide for the Care and Use of Laboratory Animals of the National Institutes of Health. All experiments were performed under the IUCAC approval of City of Hope. Animals were purchased from Jackson Laboratory (Bar Harbor, Main). For the pilot pharmacokinetic experiment, nine male Sprague Dawley rats (n=3) were administered 1, 10, or 100 mg/kg intraperitoneal injections thrice per week for four weeks. One hour following the final dose, blood and spinal fluid were collected and analyzed by mass spectrometry. For the efficacy experiment, rats were divided into 3 groups (n=7) as follows: intact, castrated, and thiostrepton. Thiostrepton was dissolved in 20% DMSO and 80% PEG400 (Sigma Aldrich) and administered at a concentration of 50 mg/kg per day via an IP osmotic pump implant (Alzet). Following a treatment period of 7 days, rats were euthanized and organs harvested, weighed and processed for quantitative RT-PCR.
# LC-MS/MS methods. Dried samples were resuspended in tetrahydrofuran spiked with 5 pg/μl reserpine, which was used as an instrument response control. Resuspended samples were separated with an Agilent 1290 UHPLC system (Agilent Technologies, Santa Clara, Calif.) and a Waters Acquity CSH C18 column (Waters, Millford, Mass.) using a linear gradient from 95% buffer A (0.1% formic acid in 60% water/40% acetonitrile) to 100% buffer B (0.1% formic acid in 90% isopropanol/10% acetonitrile) over 2.5 minutes at 380 μL/minute. The UHPLC column eluent was sprayed into an Agilent 6490 triple quadrupole mass spectrometer equipped with a JetStream source (Agilent Technologies). Thiostrepton was detected by monitoring fragments from the doubly charged ion (m/z 832.9) at m/z 1247.4 and 1230.3. Data was analyzed using Agilent MassHunter quantitative analysis software.
# A pilot pharmacokinetic study in rats was conducted to achieve desired dosing and to determine if thiostrepton crosses the blood brain barrier. Rats (n=3/group) received low (1 mg/kg), medium (10 mg/kg), or high (100 mg/kg) doses of thiostepton by intraperitoneal (IP) injection, three times a week for four weeks. One hour after the final dose, animals were euthanized and blood and spinal fluid was collected and analyzed by LC-MS/MS (FIG. 5A).
# [3] = test system: AR activity in LA muscle; assay: RT-qPCR of androgen-regulated transcripts in LA muscle; format: in vivo, rat; conditions: rats, four genes, FIG. 5H
# Method: as §1, with “Thiostrepton was dissolved in 20% DMSO and 80% PEG400 (Sigma Aldrich) and administered at a concentration of 50 mg/kg per day via an IP osmotic pump implant (Alzet).” left out
# qRT-PCR. The quantitative RT-PCR method has been described by Jones et al, ACS Chem Biol, 3(7):412-8 (2008). […] Differences between experimental (x) and control (y) samples were normalized to RPL19 transcript levels (androgen unresponsive) and determined with the following calculation: (2^(Ctsgene1-Ctygene1))/(2^(CtxRPL19-CtyRPL19)) One-way analysis of variance was applied to determine statistical significant among groups, where p<0.05 was considered significant. […]
# T1 sequence (P10275 with tags, fused parts or gaps with the stated changes): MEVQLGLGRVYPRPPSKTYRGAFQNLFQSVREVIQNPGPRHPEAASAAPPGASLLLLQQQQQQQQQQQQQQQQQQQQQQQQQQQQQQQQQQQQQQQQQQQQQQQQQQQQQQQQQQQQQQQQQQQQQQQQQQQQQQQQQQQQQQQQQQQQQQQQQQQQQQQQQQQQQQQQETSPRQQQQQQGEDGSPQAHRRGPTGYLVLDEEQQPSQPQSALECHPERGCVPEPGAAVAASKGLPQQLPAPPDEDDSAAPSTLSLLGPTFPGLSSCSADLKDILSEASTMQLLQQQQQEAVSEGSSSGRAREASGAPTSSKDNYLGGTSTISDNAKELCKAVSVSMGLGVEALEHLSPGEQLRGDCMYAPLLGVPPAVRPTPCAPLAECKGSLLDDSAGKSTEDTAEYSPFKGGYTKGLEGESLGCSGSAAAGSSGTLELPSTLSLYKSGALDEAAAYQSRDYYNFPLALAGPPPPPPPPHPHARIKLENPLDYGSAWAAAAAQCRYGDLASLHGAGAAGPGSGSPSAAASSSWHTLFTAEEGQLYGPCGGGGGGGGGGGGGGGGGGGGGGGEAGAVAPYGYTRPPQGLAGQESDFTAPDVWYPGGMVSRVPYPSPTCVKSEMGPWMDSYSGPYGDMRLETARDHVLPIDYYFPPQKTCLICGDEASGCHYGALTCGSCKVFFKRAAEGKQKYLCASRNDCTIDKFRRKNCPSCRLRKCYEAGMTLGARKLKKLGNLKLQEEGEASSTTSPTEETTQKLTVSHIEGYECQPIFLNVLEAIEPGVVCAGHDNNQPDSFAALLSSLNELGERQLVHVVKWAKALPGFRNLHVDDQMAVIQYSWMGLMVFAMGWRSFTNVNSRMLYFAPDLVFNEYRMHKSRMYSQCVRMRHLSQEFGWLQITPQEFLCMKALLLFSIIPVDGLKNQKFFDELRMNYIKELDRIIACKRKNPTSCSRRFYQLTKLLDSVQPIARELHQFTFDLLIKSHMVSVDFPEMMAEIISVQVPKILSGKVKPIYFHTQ
structure (smiles),measurement,setting,value
C=C(NC(=O)C(=C)NC(=O)c1csc(C2=N[C@@H]3c4csc(n4)[C@H]4NC(=O)c5csc(n5)[C@H]([C@](C)(O)[C@@H](C)O)NC(=O)[C@H]5CSC(=N5)/C(=C/C)NC(=O)[C@H]([C@@H](C)O)NC(=O)c5csc(n5)[C@]3(CC2)NC(=O)[C@H](C)NC(=O)C(=C)NC(=O)[C@H](C)NC(=O)[C@H]([C@@H](C)CC)N[C@@H]2C=Cc3c([C@H](C)O)cc(nc3[C@H]2O)C(=O)O[C@@H]4C)n1)C(N)=O [thiostrepton],inhibition of AR activity (luciferase),[1],efficiently inhibited AR activity
same,plasma levels,"[2]; rats, 1, 10, 100 mg/kg IP three times a week for four weeks, one hour after final dose",dose-dependent increase
same,spinal fluid level relative to plasma,"[2]; rats, IP, one hour after final dose",much lower levels than the plasma
same,spinal fluid concentration relative to IC50 in luciferase assay,"[2]; rats, high dose",above its IC50
same,levels of drug in the spinal fluid,"[2]; rats, high dose (100 mg/kg) IP, one hour after final dose",measurable levels
same,androgen-dependent gene transcript levels in LA muscle,[3],did not significantly affect
